Laboratory results taken from patent US8859527B2 (priority 2009, dated 2014).
Where two headings read alike, the source gives them in different places.

Experiments:
[1] = system: human non-small cell lung cancer H460 xenograft tumor; details: for Ending body weight / Tumor weight / Tumor-inhibition rate: 21 days
Method: The test article: the inclusion complex of DPT and SBE-β-CD, the content is 5.05%. Preparation Method: it is dissolved in a proper amount of saline after gentle shaking and the concentration is 0.4 mg/ml (which is the test solution for the 8 mg/kg group); other concentrations are prepared by diluting the stock solution of 0.4 mg/ml to the required concentration with physiological saline.
The control article: Etoposide injection produced by Qilu Pharmaceutical Co., Ltd. the batch number is 8060012EV, specification: 5 ml:0.1 g. Preparation Method: Etoposide injection is a kind of transparent sticky liquid and it is diluted with a proper amount of physiological saline and gently shaken and prepared as a homogeneous solution, and the concentration is 1 mg/ml.
Dosage setting: the high dosage group of DPT is 8 mg/kg, the medium dosage group of DPT is 4 mg/kg and the low dosage group of DPT is 2 mg/kg. The dosage for the positive control group of Etoposide injection is 20 mg/kg.
Experimental animals: source, germline and strain: BALB/c nude mice are provided by the Institute of Experimental Animals, Chinese Academy of Medical Sciences. Age: 35-40 days; body weight: 18-24 g; gender: male.
Transplanted tumor: the transplanted tumor for human nonsmall-cell lung cancer H460 in nude mice, and it is established by inoculating the human nonsmall-cell lung cancer H460 cell line hypodermically in the armpit of nude mice. 2×10^6 cells are inoculated.
Human non-small cell lung cancer H460 cell line in exponential phase of growth is prepared as a cell suspension of 2×10^7/ml under sterile conditions, 0.1 ml thereof is inoculated hypodermically in the right armpit of nude mice. The diameters of the transplanted tumors in the nude mice are measured by a sliding caliper, and the animals are randomly divided into different groups when the tumors grow up to the amount of 100 to 300 mm^3. The antitumor efficacy of the test article is dynamically observed by measuring the diameter of the tumor. The diameters of the tumor are determined once for every two days. The administration volume is 0.4 ml/20 g. The mice are killed 21 days after administration, and the tumors are surgically isolated and weighed. The calculation formula for tumor volume (TV) is as follows: TV=½×a×b^2 Wherein a and b represents for the length and the width, respectively.
The relative tumor volume (RTV) is calculated according to the measured results, and the calculation formula is as follows: RTV=Vt/V0. Wherein V0 is the tumor size measured during grouping and drug administration (d0), Vt is the tumor size in every measurements. The evaluation parameter for antitumor activity is the relative tumor growth rate T/C (%) which is calculated according to the formula as follows:
[formula] TRTV: the treatment group RTV; CRTV: the negative control group: RTV.

[2] = water solubility by the method of Chinese Pharmacopoeia 2005; assay type: physicochemical; details: DPT not included
Method: HP-β-CD and DPT are prepared into inclusion complexes under different conditions, and the DPT concentration in the inclusion complex is determined by ultraviolet spectrophotometry, and the composition molar ratio of DPT to HP-β-CD in the inclusion complex is further calculated; the water-solubility of the inclusion complex is determined according to the method specified in the examples of Chinese Pharmacopoeia 2005, so that solubility of DPT in this inclusion complex is further calculated.
With regard to the three factors, namely the concentration of HP-β-CD solution, the temperature for inclusion and the duration for inclusion, orthogonal experiments are carried out on three levels (the concentrations of the HP-β-CD solutions are 10%, 20% and 30%; the temperatures are 40° C., 50° C. and 60° C.; the duration is 1 hour, 2 hour and 3 hour), content and solubility of DPT in the inclusion complex are used as the evaluation parameters for the efficacy of inclusion, and the results are shown in Table 3. The solubility is determined by the method specified in the examples in Chinese Pharmacopoeia 2005, and the results are shown in Table 4.
The DPT content in the inclusion complex is determined by ultraviolet spectrophotometry. The solubility is determined by using the method specified in the examples in Chinese Pharmacopoeia 2005, and the results are shown in Table 6.

[3] = H460 nude mice, 8 mg/kg iv three times a week, 9 times

Molecule `COc1cc([C@@H]2c3cc4c(cc3C[C@H]3COC(=O)[C@@H]32)OCO4)cc(OC)c1OC` [DPT, Deoxypodophyllotoxin] has an RTV ([1]; 4 mg/kg iv, 14 d) of 5.954 ± 1.425, a T/C ([1]; 4 mg/kg iv, 14 d) of 70.16% and a Tumor volume ([1]; 4 mg/kg iv, 14 d) of 1530 ± 572 mm^3. For the same molecule, the RTV ([1]; 4 mg/kg iv, 16 d) was 6.870 ± 1.613, the T/C ([1]; 4 mg/kg iv, 16 d) was 68.88% and the Tumor volume ([1]; 4 mg/kg iv, 16 d) was 1740 ± 637 mm^3. The RTV ([1]; 4 mg/kg iv, 18 d) was 7.697 ± 2.279, the T/C ([1]; 4 mg/kg iv, 18 d) was 68.30% and the Tumor volume ([1]; 4 mg/kg iv, 18 d) was 1891 ± 664 mm^3. For the same molecule, the RTV ([1]; 4 mg/kg iv, 21 d) was 7.832 ± 1.816, the T/C ([1]; 4 mg/kg iv, 21 d) was 68.01% and the Tumor volume ([1]; 4 mg/kg iv, 21 d) was 1945 ± 586 mm^3. For the same molecule, the Tumor volume ([1]; 8 mg/kg iv, 0 d) was 247 ± 108 mm^3, the RTV ([1]; 8 mg/kg iv, 2 d) was 1.248 ± 0.113 and the T/C ([1]; 8 mg/kg iv, 2 d) was 77.61%. For the same molecule, the Tumor volume ([1]; 8 mg/kg iv, 2 d) was 313 ± 151 mm^3, the RTV ([1]; 8 mg/kg iv, 4 d) was 1.721 ± 0.287 and the T/C ([1]; 8 mg/kg iv, 4 d) was 65.92%. It also gave a Tumor volume ([1]; 8 mg/kg iv, 4 d) of 430 ± 196 mm^3, an RTV ([1]; 8 mg/kg iv, 6 d) of 2.403 ± 0.652 and a T/C ([1]; 8 mg/kg iv, 6 d) of 78.45%. It also gave a Tumor volume ([1]; 8 mg/kg iv, 6 d) of 559 ± 179 mm^3, an RTV ([1]; 8 mg/kg iv, 8 d) of 2.747 ± 0.766 and a T/C ([1]; 8 mg/kg iv, 8 d) of 62.55%. For the same molecule, the Tumor volume ([1]; 8 mg/kg iv, 8 d) was 635 ± 183 mm^3, the Gross tumor volume ([1]; 8 mg/kg iv, 10 d) was 895 ± 252 mm^3 and the RTV ([1]; 8 mg/kg iv, 10 d) was 3.853 ± 0.732. The T/C ([1]; 8 mg/kg iv, 10 d) was 77.03%, the Gross tumor volume ([1]; 8 mg/kg iv, 12 d) was 1034 ± 246 mm^3 and the RTV ([1]; 8 mg/kg iv, 12 d) was 4.548 ± 1.106. The T/C ([1]; 8 mg/kg iv, 12 d) was 61.23%, the RTV ([1]; 8 mg/kg iv, 14 d) was 4.845 ± 1.330 and the T/C ([1]; 8 mg/kg iv, 14 d) was 57.10%. It also gave a Tumor volume ([1]; 8 mg/kg iv, 14 d) of 1122 ± 368 mm^3, an RTV ([1]; 8 mg/kg iv, 16 d) of 4.955 ± 1.786 and a T/C ([1]; 8 mg/kg iv, 16 d) of 49.68%. It also gave a Tumor volume ([1]; 8 mg/kg iv, 16 d) of 1132 ± 397 mm^3, an RTV ([1]; 8 mg/kg iv, 18 d) of 5.609 ± 1.197 and a T/C ([1]; 8 mg/kg iv, 18 d) of 49.77%. It also gave a Tumor volume ([1]; 8 mg/kg iv, 18 d) of 1292 ± 340 mm^3, an RTV ([1]; 8 mg/kg iv, 21 d) of 5.721 ± 0.925 and a T/C ([1]; 8 mg/kg iv, 21 d) of 49.68%. The Tumor volume ([1]; 8 mg/kg iv, 21 d) was 1375 ± 558 mm^3, the Initial body weight ([1]; H460 nude mice, 2 mg/kg iv group) was 22.50 ± 1.38 g and the Ending body weight ([1]; H460 nude mice, 2 mg/kg iv) was 25.32 ± 2.25 g. The Tumor weight ([1]; H460 nude mice, 2 mg/kg iv) was 2.94 ± 0.68 g, the Tumor-inhibition rate ([1]; H460 nude mice, 2 mg/kg iv) was 9.49% and the Initial body weight ([1]; H460 nude mice, 4 mg/kg iv group) was 23.33 ± 2.25 g. For the same molecule, the Ending body weight ([1]; H460 nude mice, 4 mg/kg iv) was 23.32 ± 2.08 g, the Tumor weight ([1]; H460 nude mice, 4 mg/kg iv) was 2.52 ± 0.92 g and the Tumor-inhibition rate ([1]; H460 nude mice, 4 mg/kg iv) was 22.56%. It also gave an Initial body weight ([1]; H460 nude mice, 8 mg/kg iv group) of 22.33 ± 1.51 g, an Ending body weight [1, 3] of 22.55 ± 2.50 g and a Tumor weight [1, 3] of 1.85 ± 0.95 g. For the same molecule, the Tumor-inhibition rate [1, 3] was 43.08%, the “effects on the body weight of the animals” value ([1]; H460 nude mice, dosage groups of DPT (8, 4, 2 mg/kg iv)) was “no significant inhibition effects on the body weight of the animals” and the “solubility of DPT in water” value [2] was “about 0.5 mg/L”.
